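Tested at 5 concentrations; 48 h exposure; 96-well plates; endpoints linearly interpolated, else capped at highest concentration. GI50 is the concentration that inhibits growth by half.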 The source made the active and inactive calls. Cut-off read from the data, not from the text of the source: active = GI50 up to about 1.1 µM and inactive = higher.
Columns and labels:
Experiment in all cases: NCI-60 cell line screen, 48 h
UACC-62 = test system: UACC-62
OVCAR-4 = test system: OVCAR-4
PC-3 = test system: PC-3
T47D = test system: T47D
MCF7 = test system: MCF7
Malme-3M = test system: Malme-3M
NCI-H23 = test system: NCI-H23
SK-OV-3 = test system: SK-OV-3
SNB-75 = test system: SNB-75
HT-29 = test system: HT-29
HCT-116 = test system: HCT-116
NCI-H522 = test system: NCI-H522
M14 = test system: M14
SF-268 = test system: SF-268
SK-MEL-5 = test system: SK-MEL-5
SF-539 = test system: SF-539
SF-295 = test system: SF-295
OVCAR-3 = test system: OVCAR-3
MDA-MB-231 = test system: MDA-MB-231
U-251 = test system: U-251

Row | SMILES | GI50 (UACC-62) | GI50 (OVCAR-4) | GI50 (PC-3) | GI50 (T47D) | GI50 (MCF7) | GI50 (Malme-3M) | GI50 (NCI-H23) | GI50 (SK-OV-3) | GI50 (SNB-75) | GI50 (HT-29) | GI50 (HCT-116) | GI50 (NCI-H522) | GI50 (M14) | GI50 (SF-268) | GI50 (SK-MEL-5) | GI50 (SF-539) | GI50 (SF-295) | GI50 (OVCAR-3) | GI50 (MDA-MB-231) | GI50 (U-251)
1 | CC(=O)O[C@H]1C(=O)[C@@]2(C)[C@H]([C@H](OC(=O)c3cccc(C(F)(F)F)c3)[C@]3(O)C[C@H](OC(=O)[C@H](O)[C@@H](NC(=O)c4ccccc4)c4ccccc4)C(C)=C1C3(C)C)[C@]1(OC(C)=O)CO[C@@H]1C[C@@H]2O | 0.00526 µM (active) | 0.336 µM (active) | < 0.0025 µM (active) | 0.00455 µM (active) | < 0.0025 µM (active) | 0.00318 µM (active) | 0.0115 µM (active) | 0.0288 µM (active) | 0.00434 µM (active) | < 0.0025 µM (active) | < 0.0025 µM (active) | < 0.0025 µM (active) | 0.00306 µM (active) | 0.223 µM (active) | < 0.0025 µM (active) | < 0.0025 µM (active) | 0.0387 µM (active) | < 0.0025 µM (active) | 0.0361 µM (active) | < 0.0025 µM (active)
2 | CC(C)(C)NCc1cc(Nc2ccnc3cc(Cl)ccc23)cc(-c2ccc(Cl)cc2)c1O | 1.92 µM (inactive) | 3.36 µM (inactive) | 1.99 µM (inactive) | 3.27 µM (inactive) | 1.6 µM (inactive) | 1.84 µM (inactive) | 3.64 µM (inactive) | 3.07 µM (inactive) | 2.02 µM (inactive) | 1.87 µM (inactive) | 2.08 µM (inactive) | 3.65 µM (inactive) | 2.18 µM (inactive) | 3.48 µM (inactive) | 1.77 µM (inactive) | 1.85 µM (inactive) | 2.5 µM (inactive) | 2.66 µM (inactive) | 3 µM (inactive) | 2.59 µM (inactive)
3 | CSC1=C(C)S/C(=C\c2ccc(/C=C3\SC(C)=C(SC)S3)cc2)S1 | > 100 µM (inactive) | > 100 µM (inactive) | > 100 µM (inactive) | > 100 µM (inactive) | > 100 µM (inactive) | > 100 µM (inactive) | > 100 µM (inactive) | > 100 µM (inactive) | 41.6 µM (inactive) | > 100 µM (inactive) | > 100 µM (inactive) | > 100 µM (inactive) | > 100 µM (inactive) | > 100 µM (inactive) | > 100 µM (inactive) | 5.33 µM (inactive) | 88.9 µM (inactive) | > 100 µM (inactive) | > 100 µM (inactive) | 79.8 µM (inactive)
4 | O=C1c2c(F)c(F)c(F)c(F)c2SC2=NCCN12 | 5.04 µM (inactive) | 3.12 µM (inactive) | 13.6 µM (inactive) | 12.5 µM (inactive) | 8.15 µM (inactive) | 5.65 µM (inactive) | 5.42 µM (inactive) | 15.3 µM (inactive) | 16 µM (inactive) | 3.18 µM (inactive) | 2.15 µM (inactive) | 2.82 µM (inactive) | 4.53 µM (inactive) | 12.8 µM (inactive) | 14.8 µM (inactive) | 16.3 µM (inactive) | 17.5 µM (inactive) | 4.91 µM (inactive) | 8.75 µM (inactive) | 8.87 µM (inactive)
5 | COc1cc2oc3ccccc3c(=O)c2cc1CSc1ccccc1N | 9.71 µM (inactive) | 13.6 µM (inactive) | 14.5 µM (inactive) | 7.85 µM (inactive) | 13.6 µM (inactive) | 18.6 µM (inactive) | 29.9 µM (inactive) | 28 µM (inactive) | 30.8 µM (inactive) | 18.7 µM (inactive) | 19.5 µM (inactive) | 8.89 µM (inactive) | 23.2 µM (inactive) | 41.1 µM (inactive) | 13.5 µM (inactive) | 45.3 µM (inactive) | 14.2 µM (inactive) | 18.5 µM (inactive) | 27.7 µM (inactive) | 22.9 µM (inactive)
